Measurements reported in article PMC10997566, “Kinetic profiling of novel spirobenzo-oxazinepiperidinone derivatives as equilibrative nucleoside transporter 1 inhibitors” (Purinergic Signalling, 2023).

Experiments:
hENT1 [1] = biological target: T1, hENT1 (Homo sapiens, UniProt Q99808); assay: biochemical
T1 sequence (Q99808 1-456): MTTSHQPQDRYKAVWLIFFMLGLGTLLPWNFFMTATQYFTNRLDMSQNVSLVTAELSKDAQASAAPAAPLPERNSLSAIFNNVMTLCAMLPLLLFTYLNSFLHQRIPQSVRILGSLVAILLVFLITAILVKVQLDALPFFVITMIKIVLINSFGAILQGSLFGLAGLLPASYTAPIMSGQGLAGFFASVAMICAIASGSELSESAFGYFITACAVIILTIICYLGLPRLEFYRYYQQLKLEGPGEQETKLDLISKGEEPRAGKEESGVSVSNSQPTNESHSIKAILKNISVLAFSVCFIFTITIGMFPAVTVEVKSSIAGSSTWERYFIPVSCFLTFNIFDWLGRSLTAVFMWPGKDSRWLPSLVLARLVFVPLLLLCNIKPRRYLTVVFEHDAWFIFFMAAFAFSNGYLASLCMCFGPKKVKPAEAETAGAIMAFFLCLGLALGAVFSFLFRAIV

hENT1 [2] = biological target: T1, hENT1; assay: [3H]NBTI competition association assay (Motulsky and Mahan); conditions: 10 °C; for RT (residence time): RT = 1/koff; for koff / kon: human erythrocyte membranes, competitor at IC50 concentration, mean ± SEM
hENT1 [3] = biological target: T1, hENT1; assay: [3H]NBTI radioligand displacement assay; conditions: Ki relative to compound 1
hENT1 [4] = biological target: T1, hENT1; assay: Washout assay with [3H]NBTI binding after four wash cycles; parameters: For our experiments, we used human erythrocytes as a source of hENT1; from tissue; host or cells: human erythrocytes (membrane preparation); conditions: 10 °C; for inhibitor washed away (recovery of [3H]NBTI binding): 1 h pre-incubation at 10 × IC50, four wash and centrifugation cycles, erythrocyte membranes
Protocol: Centrifugation at 13,200 rpm (16,100 × g) at 4 °C for 5 min separated pellet and supernatant, with the latter containing the unbound ligand being removed. Pellets were resuspended in 1 mL of assay buffer, and samples were incubated for 10 min at 10 °C. In total, four centrifugation-washing cycles were performed. […] Rapid filtration through GF/C filters using a Brandel harvester (Brandel, Gaithersburg, MD) terminated the experiment. Filters were washed three times using ice-cold wash buffer and the samples were counted by scintillation spectrometry using a Tri-carb 2900 TR liquid scintillation counter (Perkin Elmer, Boston, MA).
A washout assay was used to validate the findings in the competition association assays (Fig. 2C). […] The unwashed condition was also similarly assessed, but no wash and centrifugation cycle occurred before the determination of radioligand binding. The results of both washed and unwashed samples were compared to the control condition without any competitor (100% washed and unwashed radioligand binding, respectively).

hENT1 [5] = biological target: T1, hENT1; parameters: For our experiments, we used human erythrocytes as a source of hENT1; from tissue; host or cells: human erythrocytes (membrane preparation); method as in PMID 31830468; conditions: earlier study, same experimental protocol; cited from earlier work

Structure (SMILES) | Ki (hENT1 [1]) | RT (residence time) (hENT1 [2]) | koff (hENT1 [2]) | kon (hENT1 [2]) | increase in affinity compared to 1 (hENT1 [3]) | inhibitor washed away (recovery of [3H]NBTI binding) (hENT1 [4]) | inhibitor still bound to the target (hENT1 [4]; after four extensive washing steps, 10 × IC50 pre-incubation) | RT (hENT1 [5])
Nc1cc2c(cc1Cl)C(=O)NC1(CCN(CCNC(=O)c3c(Cl)cccc3Cl)CC1)O2 [Compound 1] | 145 nM |  |  |  |  |  |  | 
CNc1cc2c(cc1Cl)C(=O)NC1(CCN(CCNC(=O)c3c(Cl)cccc3Cl)CC1)O2 [Compound 2] |  | 4.9 ± 1.1 min | 0.00338 ± 0.000783 s⁻¹ | 2.05e+06 ± 483000 M⁻¹ s⁻¹ | approximately 30 fold |  |  | 
CN(C)c1cc2c(cc1Cl)C(=O)NC1(CCN(CCNC(=O)c3c(Cl)cccc3Cl)CC1)O2 [Compound 3] |  | 6.6 ± 0.9 min | 0.00252 ± 0.000333 s⁻¹ | 2.63e+06 ± 800000 M⁻¹ s⁻¹ | approximately 30 fold |  |  | 
CC(=O)Nc1cc2c(cc1Cl)C(=O)NC1(CCN(CCNC(=O)c3c(Cl)cccc3Cl)CC1)O2 [Compound 4] |  | 2.6 ± 0.7 min | 0.00643 ± 0.00178 s⁻¹ | 200000 ± 100000 M⁻¹ s⁻¹ |  |  |  | 
COCNc1cc2c(cc1Cl)C(=O)NC1(CCN(CCNC(=O)c3c(Cl)cccc3Cl)CC1)O2 [Compound 5] |  | 5.4 ± 0.7 min | 0.00308 ± 0.000383 s⁻¹ | 600000 ± 100000 M⁻¹ s⁻¹ |  |  |  | 
O=C1NC2(CCN(CCNC(=O)c3c(Cl)cccc3Cl)CC2)Oc2cc(NC3CCCC3)c(Cl)cc21 [Compound 6] |  | 21 ± 1.4 min | 0.0008 ± 5e-05 s⁻¹ | 1.68e+06 ± 583000 M⁻¹ s⁻¹ |  |  |  | 
CNCCCNc1cc2c(cc1Cl)C(=O)NC1(CCN(CCNC(=O)c3c(Cl)cccc3Cl)CC1)O2 [Compound 8] |  | 3.4 ± 0.6 min | 0.00493 ± 0.000833 s⁻¹ | 183000 ± 67000 M⁻¹ s⁻¹ |  |  |  | 
CC(=O)NCCCNc1cc2c(cc1Cl)C(=O)NC1(CCN(CCNC(=O)c3c(Cl)cccc3Cl)CC1)O2 [Compound 9] |  | 10 ± 0.9 min | 0.0016 ± 0.00013 s⁻¹ | 417000 ± 83000 M⁻¹ s⁻¹ |  |  |  | 
CN(CCCNc1cc2c(cc1Cl)C(=O)NC1(CCN(CCNC(=O)c3c(Cl)cccc3Cl)CC1)O2)C(=O)OC(C)(C)C [Compound 10] |  | 26 ± 2.0 min | 0.000633 ± 5e-05 s⁻¹ | 550000 ± 50000 M⁻¹ s⁻¹ |  |  |  | 
O=C1NC2(CCN(CCNC(=O)c3c(Cl)cccc3Cl)CC2)Oc2cc(N3CCOCC3)c(Cl)cc21 [Compound 11] |  | 16 ± 3.3 min | 0.00107 ± 0.000233 s⁻¹ | 667000 ± 100000 M⁻¹ s⁻¹ |  |  |  | 
O=C1NC2(CCN(CCNC(=O)c3c(Cl)cccc3Cl)CC2)Oc2cc(N3CCNCC3)c(Cl)cc21 [Compound 12] |  | 2.9 ± 0.2 min | 0.00583 ± 0.000433 s⁻¹ | 633000 ± 67000 M⁻¹ s⁻¹ |  |  |  | 
CN1CCN(c2cc3c(cc2Cl)C(=O)NC2(CCN(CCNC(=O)c4c(Cl)cccc4Cl)CC2)O3)CC1 [Compound 13] |  | 11 ± 0.5 min | 0.00148 ± 6.7e-05 s⁻¹ | 450000 ± 67000 M⁻¹ s⁻¹ |  |  |  | 
CC(C)(C)OC(=O)N1CCN(c2cc3c(cc2Cl)C(=O)NC2(CCN(CCNC(=O)c4c(Cl)cccc4Cl)CC2)O3)CC1 [Compound 14] |  | 38 ± 14 min | 0.00045 ± 0.000167 s⁻¹ | 333000 ± 17000 M⁻¹ s⁻¹ |  |  |  | 
O=C1NC2(CCN(CCNC(=O)c3c(Cl)cccc3Cl)CC2)Oc2cc(NC3CCOCC3)c(Cl)cc21 [Compound 15] |  | 10 ± 0.7 min | 0.00167 ± 0.00012 s⁻¹ | 550000 ± 130000 M⁻¹ s⁻¹ |  |  |  | 
O=C1NC2(CCN(CCNC(=O)c3c(Cl)cccc3Cl)CC2)Oc2cc(NC3CCNCC3)c(Cl)cc21 [Compound 16] |  | 2.2 ± 0.4 min | 0.00773 ± 0.00153 s⁻¹ | 267000 ± 33000 M⁻¹ s⁻¹ |  |  |  | 
CN1CCC(Nc2cc3c(cc2Cl)C(=O)NC2(CCN(CCNC(=O)c4c(Cl)cccc4Cl)CC2)O3)CC1 [Compound 17] |  | 1.9 ± 0.1 min | 0.00892 ± 0.000517 s⁻¹ | 367000 ± 33000 M⁻¹ s⁻¹ |  |  |  | 
CC(=O)N1CCC(Nc2cc3c(cc2Cl)C(=O)NC2(CCN(CCNC(=O)c4c(Cl)cccc4Cl)CC2)O3)CC1 [Compound 18] |  | 26 ± 6.5 min | 0.000633 ± 0.00015 s⁻¹ | 433000 ± 50000 M⁻¹ s⁻¹ |  | approximately 60% |  | 
CC(C)(C)OC(=O)N1CCC(Nc2cc3c(cc2Cl)C(=O)NC2(CCN(CCNC(=O)c4c(Cl)cccc4Cl)CC2)O3)CC1 [Compound 19] |  | 34 ± 9.7 min | 0.0005 ± 0.00015 s⁻¹ | 317000 ± 17000 M⁻¹ s⁻¹ |  |  |  | 
O=C1NC2(CCN(CCNC(=O)c3c(Cl)cccc3Cl)CC2)Oc2cc(O)c(Cl)cc21 [Compound 20] | 1040 nM |  |  |  |  |  |  | 
CC(C)Oc1cc2c(cc1Cl)C(=O)NC1(CCN(CCNC(=O)c3c(Cl)cccc3Cl)CC1)O2 [Compound 21] |  | 18 ± 3.6 min | 0.000933 ± 0.000183 s⁻¹ | 2.17e+06 ± 850000 M⁻¹ s⁻¹ |  |  |  | 
O=C1NC2(CCN(CCNC(=O)c3c(Cl)cccc3Cl)CC2)Oc2cc(OC3CCCC3)c(Cl)cc21 [Compound 22] |  | 35 ± 7.6 min | 0.000483 ± 0.0001 s⁻¹ | 483000 ± 120000 M⁻¹ s⁻¹ |  |  |  | 
O=C1NC2(CCN(CCNC(=O)c3c(Cl)cccc3Cl)CC2)Oc2cc(OC3CCNCC3)c(Cl)cc21 [Compound 23] |  |  | 0.0034 ± 0.00085 s⁻¹ | 2.03e+06 ± 667000 M⁻¹ s⁻¹ |  | completely washed away |  | 
CN1CCC(Oc2cc3c(cc2Cl)C(=O)NC2(CCN(CCNC(=O)c4c(Cl)cccc4Cl)CC2)O3)CC1 [Compound 24] |  |  | 0.0069 ± 0.00142 s⁻¹ | 2.12e+06 ± 333000 M⁻¹ s⁻¹ |  |  |  | 
CC(=O)N1CCC(Oc2cc3c(cc2Cl)C(=O)NC2(CCN(CCNC(=O)c4c(Cl)cccc4Cl)CC2)O3)CC1 [Compound 25] |  | 72 ± 14 min | 0.000233 ± 5e-05 s⁻¹ | 533000 ± 67000 M⁻¹ s⁻¹ |  | 37% | more than 60% | 
CC(=O)N1CCC(Oc2cc3c(cc2Cl)C(=O)CC2(CCN(CCNC(=O)c4c(Cl)cccc4Cl)CC2)O3)CC1 [Compound 26] |  | 66 ± 20 min | 0.00025 ± 8.3e-05 s⁻¹ | 717000 ± 130000 M⁻¹ s⁻¹ |  |  |  | 
CC(=O)N1CCC(Oc2cc3c(cc2Cl)C(O)CC2(CCN(CCNC(=O)c4c(Cl)cccc4Cl)CC2)O3)CC1 (centres unmarked) [Compound 27] |  | 79 ± 20 min | 0.000217 ± 5e-05 s⁻¹ | 900000 ± 250000 M⁻¹ s⁻¹ |  |  |  | 
CC(=O)N1CCC(Oc2cc3c(cc2Cl)C=CC2(CCN(CCNC(=O)c4c(Cl)cccc4Cl)CC2)O3)CC1 [Compound 28] |  | 87 ± 8.7 min | 0.000183 ± 1.7e-05 s⁻¹ | 1.62e+06 ± 120000 M⁻¹ s⁻¹ |  |  |  | 
CC(=O)N1CCC(Oc2cc3c(cc2Cl)CCC2(CCN(CCNC(=O)c4c(Cl)cccc4Cl)CC2)O3)CC1 [Compound 29] |  | 52 ± 20 min | 0.000317 ± 0.00012 s⁻¹ | 1.58e+06 ± 333000 M⁻¹ s⁻¹ |  |  |  | 
NC(=O)C1CN(CCCCC(c2ccc(F)cc2)c2ccc(F)cc2)CCN1CC(=O)Nc1c(Cl)cc(N)cc1Cl (centres unmarked) [Draflazine] |  |  |  |  |  |  |  | 88 min
COc1cc(C(=O)OCCCN2CCCN(CCCOC(=O)c3cc(OC)c(OC)c(OC)c3)CC2)cc(OC)c1OC [dilazep] |  |  |  |  |  |  |  | 44 min
